Assay results reported in ChEMBL document CHEMBL4507285, “Data for DCP probe MRL-SYKi” (2021).

Columns and labels:
[1] = system: Tyrosine-protein kinase ABL1 (Homo sapiens), P00519 [F317L]; settings: Compound concentration 100.0 nM
[2] = system: Tyrosine-protein kinase ABL1 (Homo sapiens), P00519 [F317L]; settings: Compound concentration 100.0 nM; remark: listed apart in the source
[3] = system: Tyrosine-protein kinase ABL1 (Homo sapiens), P00519 [Q252H]; settings: Compound concentration 100.0 nM
[4] = system: Tyrosine-protein kinase ABL1 (Homo sapiens), P00519 [T315I]; settings: Compound concentration 100.0 nM
[5] = target: Activin receptor type-2A (Homo sapiens) (UniProt P27037); settings: Compound concentration 100.0 nM
[6] = target: Tyrosine-protein kinase receptor UFO (Homo sapiens) (UniProt P30530); settings: Compound concentration 100.0 nM
[7] = target: Calcium/calmodulin-dependent protein kinase type II subunit gamma (Homo sapiens) (UniProt Q13555); settings: Compound concentration 100.0 nM
[8] = target: Cyclin-dependent kinase 3 (Homo sapiens) (UniProt Q00526); settings: Compound concentration 100.0 nM
[9] = target: Dual specificity protein kinase CLK4 (Homo sapiens) (UniProt Q9HAZ1); settings: Compound concentration 100.0 nM
[10] = target: Macrophage colony-stimulating factor 1 receptor (Homo sapiens) (UniProt P07333); settings: Compound concentration 100.0 nM
[11] = target: Casein kinase I isoform epsilon (Homo sapiens) (UniProt P49674); settings: Compound concentration 100.0 nM
[12] = target: Mitogen-activated protein kinase kinase kinase 12 (Homo sapiens) (UniProt Q12852); settings: Compound concentration 100.0 nM
[13] = target: Serine/threonine-protein kinase 17B (Homo sapiens) (UniProt O94768); settings: Compound concentration 100.0 nM
[14] = target: Dual specificity tyrosine-phosphorylation-regulated kinase 2 (Homo sapiens) (UniProt Q92630); settings: Compound concentration 100.0 nM
[15] = system: Epidermal growth factor receptor (Homo sapiens), P00533 [UNDEFINED MUTATION]; settings: Compound concentration 100.0 nM
[16] = system: Epidermal growth factor receptor (Homo sapiens), P00533 [L858R,T790M]; settings: Compound concentration 100.0 nM
[17] = target: Ephrin type-A receptor 5 (Homo sapiens) (UniProt P54756); settings: Compound concentration 100.0 nM
[18] = target: Mitogen-activated protein kinase 3 (Homo sapiens) (UniProt P27361); settings: Compound concentration 100.0 nM
[19] = target: Tyrosine-protein kinase FRK (Homo sapiens) (UniProt P42685); settings: Compound concentration 100.0 nM
[20] = target: Homeodomain-interacting protein kinase 2 (Homo sapiens) (UniProt Q9H2X6); settings: Compound concentration 100.0 nM
[21] = target: Insulin receptor-related protein (Homo sapiens) (UniProt P14616); settings: Compound concentration 100.0 nM
[22] = target: Interleukin-1 receptor-associated kinase 1 (Homo sapiens) (UniProt P51617); settings: Compound concentration 100.0 nM
[23] = target: Tyrosine-protein kinase ITK/TSK (Homo sapiens) (UniProt Q08881); settings: Compound concentration 100.0 nM
[24] = target: Mitogen-activated protein kinase 8 (Homo sapiens) (UniProt P45983); settings: Compound concentration 100.0 nM
[25] = target: Mitogen-activated protein kinase 9 (Homo sapiens) (UniProt P45984); settings: Compound concentration 100.0 nM
[26] = target: Mitogen-activated protein kinase kinase kinase 4 (Homo sapiens) (UniProt Q9Y6R4); settings: Compound concentration 100.0 nM
[27] = target: Serine/threonine-protein kinase MARK1 (Homo sapiens) (UniProt Q9P0L2); settings: Compound concentration 100.0 nM
[28] = target: MAP/microtubule affinity-regulating kinase 3 (Homo sapiens) (UniProt P27448); settings: Compound concentration 100.0 nM
[29] = target: Serine/threonine-protein kinase Nek3 (Homo sapiens) (UniProt P51956); settings: Compound concentration 100.0 nM
[30] = target: Phosphatidylinositol 4-kinase beta (Homo sapiens) (UniProt Q9UBF8); settings: Compound concentration 100.0 nM
[31] = target: Serine/threonine-protein kinase pim-3 (Homo sapiens) (UniProt Q86V86); settings: Compound concentration 100.0 nM
[32] = target: Phosphatidylinositol 5-phosphate 4-kinase type-2 gamma (Homo sapiens) (UniProt Q8TBX8); settings: Compound concentration 100.0 nM
[33] = target: Membrane-associated tyrosine- and threonine-specific cdc2-inhibitory kinase (Homo sapiens) (UniProt Q99640); settings: Compound concentration 100.0 nM
[34] = target: Serine/threonine-protein kinase N1 (Homo sapiens) (UniProt Q16512); settings: Compound concentration 100.0 nM
[35] = target: Protein kinase C delta type (Homo sapiens) (UniProt Q05655); settings: Compound concentration 100.0 nM
[36] = target: cAMP-dependent protein kinase catalytic subunit PRKX (Homo sapiens) (UniProt P51817); settings: Compound concentration 100.0 nM
[37] = target: Serine/threonine-protein kinase RIO2 (Homo sapiens) (UniProt Q9BVS4); settings: Compound concentration 100.0 nM
[38] = target: Serine/threonine-protein kinase Sgk1 (Homo sapiens) (UniProt O00141); settings: Compound concentration 100.0 nM
[39] = target: Serine/threonine-protein kinase 16 (Homo sapiens) (UniProt O75716); settings: Compound concentration 100.0 nM
[40] = target: Serine/threonine-protein kinase TAO2 (Homo sapiens) (UniProt Q9UL54); settings: Compound concentration 100.0 nM
[41] = target: Dual specificity testis-specific protein kinase 1 (Homo sapiens) (UniProt Q15569); settings: Compound concentration 100.0 nM
[42] = target: TGF-beta receptor type-1 (Homo sapiens) (UniProt P36897); settings: Compound concentration 100.0 nM
[43] = target: Tyrosine-protein kinase Yes (Homo sapiens) (UniProt P07947); settings: Compound concentration 100.0 nM
[44] = target: Histamine H2 receptor (Homo sapiens) (UniProt P25021); settings: Compound concentration 10.0 uM
[45] = target: Alpha-1B adrenergic receptor (Homo sapiens) (UniProt P35368); settings: Compound concentration 10.0 uM
Sequence of Alpha-1B adrenergic receptor (Homo sapiens) (P35368 whole entry): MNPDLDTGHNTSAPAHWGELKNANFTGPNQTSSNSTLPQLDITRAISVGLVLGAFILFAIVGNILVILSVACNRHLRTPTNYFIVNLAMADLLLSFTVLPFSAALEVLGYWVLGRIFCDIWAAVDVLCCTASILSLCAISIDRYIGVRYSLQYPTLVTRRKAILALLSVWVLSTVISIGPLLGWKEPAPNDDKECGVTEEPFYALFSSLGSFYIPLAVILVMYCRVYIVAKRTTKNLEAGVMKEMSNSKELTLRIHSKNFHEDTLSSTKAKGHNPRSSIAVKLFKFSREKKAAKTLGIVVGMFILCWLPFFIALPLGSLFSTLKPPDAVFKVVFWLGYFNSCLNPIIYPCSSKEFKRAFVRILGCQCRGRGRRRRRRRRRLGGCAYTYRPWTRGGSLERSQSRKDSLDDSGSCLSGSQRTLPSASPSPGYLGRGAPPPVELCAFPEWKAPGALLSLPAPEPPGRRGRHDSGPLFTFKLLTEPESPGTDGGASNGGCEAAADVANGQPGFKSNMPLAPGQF

Sequence of Macrophage colony-stimulating factor 1 receptor (Homo sapiens) (P07333 whole entry, canonical isoform): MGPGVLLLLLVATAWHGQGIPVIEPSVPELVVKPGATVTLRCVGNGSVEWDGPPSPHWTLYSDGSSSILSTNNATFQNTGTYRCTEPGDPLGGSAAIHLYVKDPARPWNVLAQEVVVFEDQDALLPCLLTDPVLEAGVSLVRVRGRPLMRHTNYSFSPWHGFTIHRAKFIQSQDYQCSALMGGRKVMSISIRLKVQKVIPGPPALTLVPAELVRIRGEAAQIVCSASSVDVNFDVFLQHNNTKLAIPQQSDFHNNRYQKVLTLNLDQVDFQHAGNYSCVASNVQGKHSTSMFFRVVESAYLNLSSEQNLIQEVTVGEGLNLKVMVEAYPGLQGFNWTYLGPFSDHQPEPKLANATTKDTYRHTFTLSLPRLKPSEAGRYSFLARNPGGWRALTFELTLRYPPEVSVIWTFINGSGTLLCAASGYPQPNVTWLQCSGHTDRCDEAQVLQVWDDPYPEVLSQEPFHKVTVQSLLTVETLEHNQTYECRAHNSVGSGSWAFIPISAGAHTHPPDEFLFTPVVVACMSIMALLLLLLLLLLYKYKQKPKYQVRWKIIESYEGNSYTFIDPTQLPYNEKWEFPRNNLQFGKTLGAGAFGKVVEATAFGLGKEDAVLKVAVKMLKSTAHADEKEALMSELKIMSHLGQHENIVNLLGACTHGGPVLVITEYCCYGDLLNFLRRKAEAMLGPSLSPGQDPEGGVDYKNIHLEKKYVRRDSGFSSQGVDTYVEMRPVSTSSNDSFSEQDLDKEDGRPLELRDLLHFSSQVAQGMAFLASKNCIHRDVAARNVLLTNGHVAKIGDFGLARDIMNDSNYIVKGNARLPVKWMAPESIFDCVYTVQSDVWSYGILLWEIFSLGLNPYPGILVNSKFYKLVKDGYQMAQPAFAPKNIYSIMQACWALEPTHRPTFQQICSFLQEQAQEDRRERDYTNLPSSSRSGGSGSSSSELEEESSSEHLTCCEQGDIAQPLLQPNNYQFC
Sequence of Protein kinase C delta type (Homo sapiens) (Q05655 whole entry, looked up): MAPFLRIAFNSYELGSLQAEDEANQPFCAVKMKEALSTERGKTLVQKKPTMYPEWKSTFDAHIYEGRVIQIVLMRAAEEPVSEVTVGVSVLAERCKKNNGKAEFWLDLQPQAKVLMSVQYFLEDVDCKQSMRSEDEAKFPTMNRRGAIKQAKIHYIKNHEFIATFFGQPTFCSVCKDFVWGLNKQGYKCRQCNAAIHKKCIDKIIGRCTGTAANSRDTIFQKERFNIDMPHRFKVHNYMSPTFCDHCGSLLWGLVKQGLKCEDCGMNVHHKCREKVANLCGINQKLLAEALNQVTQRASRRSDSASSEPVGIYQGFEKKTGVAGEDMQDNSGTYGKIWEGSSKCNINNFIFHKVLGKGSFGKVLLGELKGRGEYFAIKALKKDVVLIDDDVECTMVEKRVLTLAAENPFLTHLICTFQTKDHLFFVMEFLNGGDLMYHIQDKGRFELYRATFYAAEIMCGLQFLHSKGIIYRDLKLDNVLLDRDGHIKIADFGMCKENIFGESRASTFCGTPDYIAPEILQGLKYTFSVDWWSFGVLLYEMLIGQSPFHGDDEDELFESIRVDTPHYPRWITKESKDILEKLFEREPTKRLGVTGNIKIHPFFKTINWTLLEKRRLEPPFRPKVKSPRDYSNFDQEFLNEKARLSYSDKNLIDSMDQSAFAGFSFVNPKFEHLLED
Sequence of Serine/threonine-protein kinase TAO2 (Homo sapiens) (Q9UL54 whole entry): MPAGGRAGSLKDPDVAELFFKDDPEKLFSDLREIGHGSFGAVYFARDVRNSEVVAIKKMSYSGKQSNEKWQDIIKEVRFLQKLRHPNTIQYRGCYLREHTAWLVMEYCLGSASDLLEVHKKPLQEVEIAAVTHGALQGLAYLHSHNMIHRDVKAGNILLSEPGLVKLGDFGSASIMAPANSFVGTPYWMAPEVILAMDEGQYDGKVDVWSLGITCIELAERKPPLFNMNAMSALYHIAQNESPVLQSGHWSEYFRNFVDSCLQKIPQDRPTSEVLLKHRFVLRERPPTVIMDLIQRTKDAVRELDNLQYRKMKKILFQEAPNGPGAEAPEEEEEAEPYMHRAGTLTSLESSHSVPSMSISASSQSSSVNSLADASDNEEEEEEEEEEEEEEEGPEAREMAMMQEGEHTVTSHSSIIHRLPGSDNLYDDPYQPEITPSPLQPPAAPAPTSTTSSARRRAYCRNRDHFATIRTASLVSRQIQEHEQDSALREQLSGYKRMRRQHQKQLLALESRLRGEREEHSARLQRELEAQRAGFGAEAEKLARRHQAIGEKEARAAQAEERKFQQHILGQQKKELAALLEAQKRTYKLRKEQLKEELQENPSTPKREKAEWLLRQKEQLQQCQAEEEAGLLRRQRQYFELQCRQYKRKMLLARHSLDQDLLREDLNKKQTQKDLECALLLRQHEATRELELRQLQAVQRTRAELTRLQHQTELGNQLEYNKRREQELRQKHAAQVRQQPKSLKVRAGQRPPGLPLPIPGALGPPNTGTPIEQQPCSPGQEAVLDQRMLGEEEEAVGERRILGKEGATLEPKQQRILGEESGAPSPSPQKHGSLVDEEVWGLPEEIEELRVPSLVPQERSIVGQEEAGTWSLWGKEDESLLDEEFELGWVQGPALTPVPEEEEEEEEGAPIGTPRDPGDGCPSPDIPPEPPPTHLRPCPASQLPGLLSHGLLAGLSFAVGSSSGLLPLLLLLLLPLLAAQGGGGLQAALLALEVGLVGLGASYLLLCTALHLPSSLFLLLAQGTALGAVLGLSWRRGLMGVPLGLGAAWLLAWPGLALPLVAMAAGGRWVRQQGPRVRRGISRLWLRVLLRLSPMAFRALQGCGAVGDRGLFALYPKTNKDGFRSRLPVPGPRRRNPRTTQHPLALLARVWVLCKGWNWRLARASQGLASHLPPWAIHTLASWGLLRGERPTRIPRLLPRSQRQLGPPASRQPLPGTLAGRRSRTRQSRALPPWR
Sequence of Membrane-associated tyrosine- and threonine-specific cdc2-inhibitory kinase (Homo sapiens) (Q99640 whole entry): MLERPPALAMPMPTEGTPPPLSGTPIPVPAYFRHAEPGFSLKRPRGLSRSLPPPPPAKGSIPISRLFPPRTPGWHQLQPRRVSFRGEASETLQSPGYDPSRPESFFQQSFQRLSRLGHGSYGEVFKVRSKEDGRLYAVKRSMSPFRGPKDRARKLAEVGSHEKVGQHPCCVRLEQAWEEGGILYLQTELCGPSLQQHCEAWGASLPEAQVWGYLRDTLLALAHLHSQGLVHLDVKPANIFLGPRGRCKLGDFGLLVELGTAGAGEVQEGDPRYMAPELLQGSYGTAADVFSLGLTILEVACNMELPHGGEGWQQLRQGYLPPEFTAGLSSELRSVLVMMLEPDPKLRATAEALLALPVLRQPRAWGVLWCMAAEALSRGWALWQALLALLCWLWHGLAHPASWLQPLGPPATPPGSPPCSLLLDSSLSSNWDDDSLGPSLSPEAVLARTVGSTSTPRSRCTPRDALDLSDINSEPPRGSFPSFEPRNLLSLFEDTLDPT
Sequence of Mitogen-activated protein kinase 3 (Homo sapiens) (P27361 whole entry): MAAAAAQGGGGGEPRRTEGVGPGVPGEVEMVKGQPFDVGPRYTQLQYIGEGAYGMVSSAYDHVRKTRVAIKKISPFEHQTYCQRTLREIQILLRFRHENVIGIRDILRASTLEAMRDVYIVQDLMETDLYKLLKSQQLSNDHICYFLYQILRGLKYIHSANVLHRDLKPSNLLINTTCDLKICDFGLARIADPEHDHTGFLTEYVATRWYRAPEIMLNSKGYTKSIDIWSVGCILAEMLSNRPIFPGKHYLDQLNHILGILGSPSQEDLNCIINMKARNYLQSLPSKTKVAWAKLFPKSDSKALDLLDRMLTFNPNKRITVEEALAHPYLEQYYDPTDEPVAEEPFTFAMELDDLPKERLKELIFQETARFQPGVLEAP
Sequence of Dual specificity protein kinase CLK4 (Homo sapiens) (Q9HAZ1 whole entry, looked up): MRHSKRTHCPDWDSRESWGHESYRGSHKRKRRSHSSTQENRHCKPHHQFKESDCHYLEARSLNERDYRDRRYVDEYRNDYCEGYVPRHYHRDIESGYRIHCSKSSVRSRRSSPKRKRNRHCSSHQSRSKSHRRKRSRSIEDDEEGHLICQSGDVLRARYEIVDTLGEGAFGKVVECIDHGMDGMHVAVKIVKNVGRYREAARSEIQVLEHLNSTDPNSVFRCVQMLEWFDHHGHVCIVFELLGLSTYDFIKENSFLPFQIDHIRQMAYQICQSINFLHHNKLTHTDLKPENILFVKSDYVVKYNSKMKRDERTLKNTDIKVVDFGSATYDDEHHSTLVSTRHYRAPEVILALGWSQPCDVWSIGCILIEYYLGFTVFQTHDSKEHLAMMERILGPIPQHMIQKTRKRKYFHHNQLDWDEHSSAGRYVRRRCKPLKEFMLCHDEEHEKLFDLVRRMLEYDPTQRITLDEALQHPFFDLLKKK

Cc1ccc(-c2cnc([C@@]3(O)CC[C@H](C(=O)O)C(C)(C)C3)s2)cc1Nc1cccc(C(F)(F)F)n1 [MRL-SYKi-NC]
residual activity [1]: 99.1% | residual activity [2]: 84.4% | residual activity [3]: 82.2% | residual activity [4]: 100% | residual activity [5]: 96.9% | residual activity [6]: 100% | residual activity [7]: 88.2% | residual activity [8]: 92.9% | residual activity [9]: 65.2% | residual activity [10]: 100% | residual activity [11]: 87.6% | residual activity [12]: 99.3% | residual activity [13]: 94.6% | residual activity [14]: 82.4% | residual activity [15]: 100% | residual activity [16]: 100% | residual activity [17]: 100% | residual activity [18]: 100% | residual activity [19]: 100% | residual activity [20]: 73.5% | residual activity [21]: 86.1% | residual activity [22]: 49.8% | residual activity [23]: 94.7% | residual activity [24]: 63.7% | residual activity [25]: 45.3% | residual activity [26]: 100% | residual activity [27]: 62.8% | residual activity [28]: 100% | residual activity [29]: 82.8% | residual activity [30]: 81.2% | residual activity [31]: 89.2% | residual activity [32]: 97.5% | residual activity [33]: 93.1% | residual activity [34]: 100% | residual activity [35]: 89% | residual activity [36]: 97.2% | residual activity [37]: 100% | residual activity [38]: 64.9% | residual activity [39]: 78% | residual activity [40]: 84.7% | residual activity [41]: 95.2% | residual activity [42]: 83% | residual activity [43]: 100% | inhibition [44]: 8.65% | inhibition [45]: 7.9%

Cc1cc(Nc2nccc(C)n2)cc(-c2cnc([C@@]3(O)CC[C@H](C(=O)O)C(C)(C)C3)s2)c1 [MRL-SYKi]
residual activity [1]: 100% | residual activity [2]: 69.6% | residual activity [3]: 32.4% | residual activity [4]: 100% | residual activity [5]: 85.6% | residual activity [6]: 100% | residual activity [7]: 95.2% | residual activity [8]: 100% | residual activity [9]: 90.9% | residual activity [10]: 100% | residual activity [11]: 100% | residual activity [12]: 66.9% | residual activity [13]: 100% | residual activity [14]: 100% | residual activity [15]: 74% | residual activity [16]: 46.2% | residual activity [17]: 94% | residual activity [18]: 98.9% | residual activity [19]: 100% | residual activity [20]: 83.5% | residual activity [21]: 100% | residual activity [22]: 80.7% | residual activity [23]: 81% | residual activity [24]: 46.6% | residual activity [25]: 100% | residual activity [26]: 67.4% | residual activity [27]: 95.3% | residual activity [28]: 100% | residual activity [29]: 50.7% | residual activity [30]: 88.6% | residual activity [31]: 100% | residual activity [32]: 91.9% | residual activity [33]: 100% | residual activity [34]: 96.9% | residual activity [35]: 83.7% | residual activity [36]: 100% | residual activity [37]: 83.9% | residual activity [38]: 100% | residual activity [39]: 100% | residual activity [40]: 97.5% | residual activity [41]: 100% | residual activity [42]: 68.4% | residual activity [43]: 100% | inhibition [44]: 3.06% | inhibition [45]: 3.23%
